According to ChEMBL document CHEMBL3832761, “MMV Pathogen Box Bioactivity Data” (2017):
Calls of active or inactive are those of the source. The calls are words filed in the database; no cut-off is given here.

What was measured:
Trypanosoma cruzi = assay: AntiTrypanosoma cruzi activity IC50 (uM); assay type: functional, organism-based
Trypanosoma brucei [1] = assay: AntiTrypanosoma brucei activity T. b. brucei IC50 (uM); assay type: functional, organism-based
Trypanosoma brucei [2] = assay: AntiTrypanosoma brucei activity T. b. rhodesiense IC50 (uM); assay type: functional, organism-based
Leishmania major = assay: AntiLeishmania activity L. major IC50 (uM); assay type: functional, organism-based
Leishmania infantum = assay: AntiLeishmania activity L. infantum (macrophages) IC50 (uM); assay type: functional, organism-based
HepG2 [3] = assay: Cytotoxicity data HepG2 CC20 (uM); assay type: functional
MRC5 = assay: MRC5 CC50 (uM) Cytotoxicity; assay type: functional; conditions: Homo sapiens
[4] = PMM CC50 (uM) Cytotoxicity; assay type: functional; conditions: Macrophage
Leishmania donovani [5] = assay: AntiLeishmania activity L. donovani (axenic) IC50 (uM); assay type: functional, organism-based
Leishmania donovani [6] = assay: AntiLeishmania activity L. donovani (macrophages) IC50 (uM); assay type: functional, organism-based
Leishmania = assay: AntiLeishmania activity Toxicity on infected PMM (uM); assay type: functional
L6 = assay: L6 CC50 (uM) Cytotoxicity; assay type: functional; conditions: Rattus norvegicus
Dengue virus [7] = assay: AntiDengue activity HCI DV1/A549 IC50 (uM); assay type: functional, organism-based
Dengue virus [8] = assay: AntiDengue activity HCI DV2/A549 IC50 (uM); assay type: functional, organism-based
Dengue virus [9] = assay: AntiDengue activity HCI DV2/Huh7 IC50 (uM); assay type: functional, organism-based; conditions: Huh-7
Dengue virus [10] = assay: AntiDengue activity HCI DV3/A549 IC50 (uM); assay type: functional, organism-based
Dengue virus [11] = assay: AntiDengue activity HCI DV4/A549 IC50 (uM); assay type: functional, organism-based
[12] = AntiChikungunya activity HCI CHIKV/Huh7 IC50 (uM); assay type: functional, Chikungunya virus
A549 = assay: A549 CC50 (uM) Cytotoxicity; assay type: functional; conditions: Homo sapiens
HepG2 [13] = assay: HepG2 CC50 (uM) Cytotoxicity; assay type: functional; conditions: Homo sapiens
[14] = HUH7 CC50 (uM) Cytotoxicity; assay type: functional; conditions: Huh-7
Schistosoma mansoni [15] = assay: AntiSchistosoma mansoni activity Newly Transformed Schistosomula: inhibition at 10 uM at 72h (%); assay type: functional
Schistosoma mansoni [16] = assay: AntiSchistosoma mansoni activity Newly Transformed Schistosomula: IC50 at 72h (uM); assay type: functional, organism-based
Schistosoma mansoni [17] = assay: AntiSchistosoma mansoni activity Adults: Effect at 10 uM after 48h; assay type: functional, organism-based
Toxoplasma gondii [18] = assay: AntiToxoplasma gondii activity data Inhibition of plaque forming efficiency (%) Experiment A; assay type: functional; set-up: concentration or dose not given beside the values
Toxoplasma gondii [19] = assay: AntiToxoplasma gondii activity data Inhibition of plaque forming efficiency (%) Experiment B; assay type: functional; set-up: concentration or dose not given beside the values
Toxoplasma gondii [20] = assay: AntiToxoplasma gondii activity data 2-day killing assay: inhibition at 10 uM (%) Experiment C; assay type: functional; conditions: 48 h
Toxoplasma gondii [21] = assay: AntiToxoplasma gondii activity data 2-day killing assay: inhibition at 10 uM (%) Experiment D; assay type: functional
Toxoplasma gondii [22] = assay: AntiToxoplasma gondii activity data 2-day killing assay: inhibition at 10 uM (%) Experiment E; assay type: functional
Toxoplasma gondii [23] = assay: AntiToxoplasma gondii activity data 2-day killing assay: IC50 (uM), Experiment F; assay type: functional, organism-based
Toxoplasma gondii [24] = assay: AntiToxoplasma gondii activity data 2-day killing assay: IC50 (uM), Experiment G; assay type: functional, organism-based
[25] = HL60 CC50 (uM) Cytotoxicity; assay type: functional; conditions: HL-60
Schistosoma mansoni [26] = assay: AntiSchistosoma mansoni activity Larva IC50 (uM); assay type: functional, organism-based
Schistosoma mansoni [27] = assay: AntiSchistosoma mansoni activity Juveniles IC50 (uM); assay type: functional, organism-based
Schistosoma mansoni [28] = assay: AntiSchistosoma mansoni activity Adults IC50 (uM); assay type: functional, organism-based

Nc1ccc2ncnc(Nc3ccc(OCc4cccc(F)c4)c(Cl)c3)c2c1
IC50 (Trypanosoma cruzi): 4030 nM
IC50 (Trypanosoma brucei [1]): > 32 µM
IC50 (Trypanosoma brucei [2]): 13.1 µM
IC50 (Leishmania major): 10.4 µM
IC50 (Leishmania infantum): > 32 µM
CC20 (HepG2 [3]): 9.72 µM
CC50 (MRC5): > 32 µM
CC50 [4]: > 32 µM

CC(C)(C)OC(=O)N1CCN(c2cc(-c3ccc(Oc4ccccc4)cc3)n[nH]2)CC1
IC50 (Trypanosoma cruzi): 9370 nM
IC50 (Trypanosoma brucei [1]): 3.89 µM
IC50 (Trypanosoma brucei [2]): 2.7 µM
IC50 (Leishmania major): 13 µM
IC50 (Leishmania infantum): 10.2 µM
IC50 (Leishmania donovani [5]): 1320 nM
IC50 (Leishmania donovani [6]): > 10 µM
Toxicity on infected macrophages (Leishmania): 20 µM
CC20 (HepG2 [3]): 4.03 µM
CC50 (L6): 4.8 µM
CC50 (MRC5): > 32 µM
CC50 [4]: 16 µM

O=C1[C@@H](Oc2ccccc2)[C@@H](c2ccc(Cl)cc2)N1CCn1cnc2c(NCc3ccccc3)ncnc21
IC50 (Dengue virus [7]): 3 µM
IC50 (Dengue virus [8]): 6 µM
IC50 (Dengue virus [9]): 3000 nM
IC50 (Dengue virus [10]): 4 µM
IC50 (Dengue virus [11]): 2000 nM
IC50 [12]: 6 µM
CC50 (A549): 40 µM
CC50 (HepG2 [13]): 3000 nM
CC50 [14]: 10 µM

CC(C)(C)OC(=O)N1CCN(c2nccc(-c3ccc(-c4ccc(Cl)cc4)s3)n2)CC1
IC50 (Dengue virus [7]): 7 µM
IC50 (Dengue virus [8]): 7 µM
IC50 (Dengue virus [9]): > 50000 nM
IC50 (Dengue virus [10]): 2 µM
IC50 (Dengue virus [11]): 3000 nM
IC50 [12]: 10 µM
CC50 (A549): > 50 µM
CC50 (HepG2 [13]): > 50000 nM
CC50 [14]: > 50 µM

Cc1ncc(-c2ccnc(Nc3ccc(S(C)(=O)=O)cc3)n2)n1C(C)C [AZD-5438]
IC50 (Trypanosoma cruzi): 1080 nM
IC50 (Trypanosoma brucei [1]): 0.26 µM
IC50 (Trypanosoma brucei [2]): < 0.13 µM
IC50 (Leishmania major): 3.15 µM
IC50 (Leishmania infantum): 1.15 µM
CC20 (HepG2 [3]): 0.18 µM
CC50 (MRC5): 1 µM
CC50 [4]: 4 µM

Cn1ncc2c(N3CCOCC3)nc(NCCc3c[nH]c4ccccc34)nc21 [TDR79432]
Inhibition (Schistosoma mansoni [15]): 88%
IC50 (Schistosoma mansoni [16]): 430 nM
Activity (Schistosoma mansoni [17]): Active
CC20 (HepG2 [3]): 4.63 µM

CC(=O)N1CCN(c2ccc(Oc3ccc(Cl)cc3O)cc2)CC1
Inhibition (Toxoplasma gondii [18]): ~90%
Inhibition (Toxoplasma gondii [19]): ~90%
inhibition at 10 µM (Toxoplasma gondii [20]): 71%
Inhibition (Toxoplasma gondii [21]): 22.4%
Inhibition (Toxoplasma gondii [22]): 64.6%
IC50 (Toxoplasma gondii [23]): no inhibition
IC50 (Toxoplasma gondii [24]): no inhibition
CC50 [25]: > 50 µM

c1ccc(Oc2ccc(-c3cncc(-c4ccc5[nH]ccc5c4)n3)cc2)cc1
IC50 (Schistosoma mansoni [26]): 1.4 µM
IC50 (Schistosoma mansoni [27]): 2.1 µM
IC50 (Schistosoma mansoni [28]): 3.7 µM
Inhibition (Schistosoma mansoni [15]): 100%
IC50 (Schistosoma mansoni [16]): 270 nM
Activity (Schistosoma mansoni [17]): Active
CC20 (HepG2 [3]): 25.7 µM
CC50 (MRC5): 20 µM

COCC(C)NC(=O)CSc1ncnc2sc(-c3ccccc3)cc12 (centres undefined)
Inhibition (Schistosoma mansoni [15]): 50%
Activity (Schistosoma mansoni [17]): inactive
CC20 (HepG2 [3]): >80 µM

Cc1nn(C(=O)Nc2cccc(C(F)(F)F)c2)c(C)c1Sc1ncccn1
IC50 (Schistosoma mansoni [27]): 4.05 µM
IC50 (Schistosoma mansoni [28]): 2 µM
Inhibition (Schistosoma mansoni [15]): 33.3%
Activity (Schistosoma mansoni [17]): Active
CC20 (HepG2 [3]): 30.7 µM

c1ccc(-c2[nH]c3ccccc3c2C(c2ccccn2)N2CCCC2)cc1 (centres undefined)
IC50 (Schistosoma mansoni [26]): 0.5 µM
IC50 (Schistosoma mansoni [27]): 2.5 µM
IC50 (Schistosoma mansoni [28]): 3.2 µM
Inhibition (Schistosoma mansoni [15]): 100%
IC50 (Schistosoma mansoni [16]): 510 nM
CC20 (HepG2 [3]): 1 µM
CC50 (MRC5): 86 µM

CC(C(=O)Nc1ccc2oc(-c3ccncc3)nc2c1)c1ccccc1 (centres undefined)
Inhibition (Toxoplasma gondii [18]): 100%
Inhibition (Toxoplasma gondii [19]): ~75%
inhibition at 10 µM (Toxoplasma gondii [20]): 3.75%
Inhibition (Toxoplasma gondii [21]): 62.6%
Inhibition (Toxoplasma gondii [22]): 1.05%
IC50 (Toxoplasma gondii [23]): no inhibition
IC50 (Toxoplasma gondii [24]): no inhibition
CC50 [25]: > 50 µM

COc1ccc(-c2cnc3cnc(-c4cccc(OC(C)C)c4)cn23)cc1
IC50 (Schistosoma mansoni [26]): 6.7 µM
IC50 (Schistosoma mansoni [27]): 5.7 µM
IC50 (Schistosoma mansoni [28]): 4.9 µM
Inhibition (Schistosoma mansoni [15]): 93%
IC50 (Schistosoma mansoni [16]): 1180 nM
Activity (Schistosoma mansoni [17]): Active
CC20 (HepG2 [3]): 24.3 µM
CC50 (MRC5): 40.1 µM

CN1CCN(S(=O)(=O)c2ccc(-c3ccc4c(Nc5ncc(Cl)cn5)ccnc4c3)cc2)CC1
IC50 (Trypanosoma cruzi): 3810 nM
IC50 (Trypanosoma brucei [1]): 3.78 µM
IC50 (Trypanosoma brucei [2]): 0.96 µM
IC50 (Leishmania major): 8.51 µM
IC50 (Leishmania infantum): 2.54 µM
CC20 (HepG2 [3]): 8 µM
CC50 (MRC5): > 32 µM
CC50 [4]: 4 µM

CC(Oc1cccc(Cl)c1)C(=O)Nc1ccc2oc(-c3ccncc3)nc2c1 (centres undefined)
Inhibition (Toxoplasma gondii [18]): 100%
Inhibition (Toxoplasma gondii [19]): 100%
inhibition at 10 µM (Toxoplasma gondii [20]): 0%
Inhibition (Toxoplasma gondii [21]): 85.4%
Inhibition (Toxoplasma gondii [22]): 81.6%
IC50 (Toxoplasma gondii [23]): no inhibition
IC50 (Toxoplasma gondii [24]): no inhibition
CC50 [25]: > 25 µM

Cc1[nH]c2ccccc2c1C(c1cccs1)N1CCN(C)CC1 (centres undefined)
IC50 (Schistosoma mansoni [27]): 3.8 µM
IC50 (Schistosoma mansoni [28]): 7.2 µM
Inhibition (Schistosoma mansoni [15]): 100%
IC50 (Schistosoma mansoni [16]): 290 nM
CC20 (HepG2 [3]): 8.46 µM
CC50 (MRC5): > 20 µM

Cc1nc(-c2ccccn2)nc(N2CCC(Cc3ccccc3)C2)c1Cl (centres undefined)
IC50 (Trypanosoma cruzi): 970 nM
IC50 (Trypanosoma brucei [1]): 6.61 µM
IC50 (Trypanosoma brucei [2]): 5.62 µM
IC50 (Leishmania major): 8.96 µM
IC50 (Leishmania infantum): 4.03 µM
IC50 (Leishmania donovani [5]): 30 nM
IC50 (Leishmania donovani [6]): 4.2 µM
Toxicity on infected macrophages (Leishmania): 16.7 µM
CC20 (HepG2 [3]): 10.2 µM
CC50 (L6): 15.2 µM
CC50 (MRC5): 15.5 µM
CC50 [4]: 16 µM

O=C(CN1CCOCC1)Nc1ccc2ncnc(Nc3ccc(OCc4cccc(F)c4)c(Cl)c3)c2c1
IC50 (Trypanosoma cruzi): 950 nM
IC50 (Trypanosoma brucei [1]): 5.31 µM
IC50 (Trypanosoma brucei [2]): 3.07 µM
IC50 (Leishmania major): 12.4 µM
IC50 (Leishmania infantum): > 32 µM
CC20 (HepG2 [3]): 10.9 µM
CC50 (MRC5): 6.4 µM
CC50 [4]: > 32 µM

Cc1cc2nc(NC(=O)C(C)(C)C)nc(Cl)c2n1Cc1ccc(Cl)cc1
Inhibition (Toxoplasma gondii [18]): ~85%
Inhibition (Toxoplasma gondii [19]): ~50%
inhibition at 10 µM (Toxoplasma gondii [20]): 0%
Inhibition (Toxoplasma gondii [21]): 63.9%
Inhibition (Toxoplasma gondii [22]): 0%
IC50 (Toxoplasma gondii [23]): no inhibition
IC50 (Toxoplasma gondii [24]): no inhibition
CC50 [25]: > 25 µM

COc1ccc(-c2nnc3ccc(-c4cccc(C(C)C)c4)cn23)cc1OC
IC50 (Schistosoma mansoni [26]): 6.6 µM
IC50 (Schistosoma mansoni [27]): 4 µM
IC50 (Schistosoma mansoni [28]): 1.6 µM
Inhibition (Schistosoma mansoni [15]): 79%
IC50 (Schistosoma mansoni [16]): 5690 nM
Activity (Schistosoma mansoni [17]): Active
CC20 (HepG2 [3]): 7.5 µM
CC50 (MRC5): 18.6 µM

CC(C)(C)OC(=O)N1CCC(Cn2nc(-c3cnc4ccccc4c3)c3c(N)ncnc32)CC1
Inhibition (Toxoplasma gondii [18]): 100%
Inhibition (Toxoplasma gondii [19]): ~75%
inhibition at 10 µM (Toxoplasma gondii [20]): 1.88%
Inhibition (Toxoplasma gondii [21]): 36.1%
Inhibition (Toxoplasma gondii [22]): 0%
CC50 [25]: > 50 µM

CS(=O)(=O)N1CCC(CCn2nc(Cc3cccc4ccccc34)c3c(N)ncnc32)CC1
Inhibition (Toxoplasma gondii [18]): 100%
Inhibition (Toxoplasma gondii [19]): 100%
inhibition at 10 µM (Toxoplasma gondii [20]): 0%
Inhibition (Toxoplasma gondii [21]): 63.9%
Inhibition (Toxoplasma gondii [22]): 20.6%
IC50 (Toxoplasma gondii [23]): no inhibition
IC50 (Toxoplasma gondii [24]): no inhibition
CC50 [25]: > 50 µM
